According to US20190119348A1, “PARATHYROID HORMONE RECEPTOR 1 ANTAGONIST AND INVERSE AGONIST POLYPEPTIDES AND METHODS OF THEIR USE” (The General Hospital Corporation, priority 2016, published 2019):
Like-named read-outs stand apart in the source and are kept apart here. Where a SMILES comes first, the peptide text is derived from it. [ ]: non-standard residue; d: D form. The star is where a group is joined. 5TAMRA = CN(C)c1ccc2c(c1)Oc1cc(N(C)C)ccc1C21OC(=O)c2cc(C(=O)*)ccc21

Key:
PTHR1 (hPTHR1) = target: T1, PTHR1 (hPTHR1) (Homo sapiens, UniProt Q03431); assay: Radioligand competition binding in GP-2.3 cells; conditions: radioligand competition
T1 construct: expressed in transfected cells; host or cells: GP-2.3 (HEK-293 stably transfected with hPTHR1 and GloSensor)
T1 sequence (Q03431 27-593): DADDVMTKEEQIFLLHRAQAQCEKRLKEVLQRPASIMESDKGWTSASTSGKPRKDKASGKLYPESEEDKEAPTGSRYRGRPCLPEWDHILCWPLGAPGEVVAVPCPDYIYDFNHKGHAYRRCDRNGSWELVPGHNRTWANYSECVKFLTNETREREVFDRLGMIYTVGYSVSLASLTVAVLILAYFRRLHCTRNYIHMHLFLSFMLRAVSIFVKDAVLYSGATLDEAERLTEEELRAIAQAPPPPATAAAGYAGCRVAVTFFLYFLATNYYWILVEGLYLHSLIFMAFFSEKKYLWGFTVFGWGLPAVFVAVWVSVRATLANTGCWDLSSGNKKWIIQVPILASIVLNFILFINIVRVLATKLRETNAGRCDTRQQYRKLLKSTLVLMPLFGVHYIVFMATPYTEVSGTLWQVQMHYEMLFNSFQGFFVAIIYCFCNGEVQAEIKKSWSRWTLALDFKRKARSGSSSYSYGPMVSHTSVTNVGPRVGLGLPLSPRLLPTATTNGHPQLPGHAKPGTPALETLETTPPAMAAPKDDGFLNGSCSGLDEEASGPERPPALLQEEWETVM
Procedure: (§1) Intact cell binding reactions were performed in 96-well plates, and, following incubation, the cells were lysed with 1N NaOH, and the lysate was counted for gamma radiation. For membrane dissociation assays, reactions were assembled in 15 cc tubes, and, at times following membrane addition (t=0), aliquots were withdrawn and filtered through a well of a vacuum filtration 96-well plate, rinsed, and, after washing, the filters were removed and counted for gamma irradiation. […] Curves were fit to the data using a four-parameter sigmoidal dose-response equation.
(§2) Pharmacological properties of the ligands were assessed in cells expressing the PTHR1 and the GloSensor™ cAMP reporter. The assays used GP-2.3 cells, derived from HEK293 cells by stable transfection with the hPTHR1 and GloSensor™, as well as SGS-72 cells, which are derived from the human osteosarcoma cell line, Saos-2, in which is endogenously expressed the hPTHR1, by stable transfection with GloSensor™. Binding of representative polypeptides to the PTHR1 was assessed in GP-2.3 cells by radioligand competition methods (FIGS. 1A and 1B, Table 3).
The assays were performed in GP-2.3 cells with the two tracer ^125I-radioligands shown; values are half-maximal inhibitory concentration (pIC50) and corresponding nanomolar value (below) derived from curve fitting ligand dose-response data. Data are means of four experiments.

PTHR1 [1] = target: T2, PTHR1 (Homo sapiens, UniProt Q03431); assay: Antagonism of PTH(1-34)-induced cAMP response (GloSensor) in GP-2.3 cells; type: cell-based; conditions: PTH(1-34) 1 nM
T2 construct: expressed in transfected cells; host or cells: GP-2.3 (HEK-293 stably transfected with hPTHR1 and GloSensor)
T2 sequence (Q03431 27-593): T1 sequence (Q03431 27-593)
Procedure: (§3) cAMP signaling was assessed in the HEK293-derived or SaOS2-derived cell lines stably expressing the luciferase-based GloSensor™ cAMP reporter (Hattersley et al., Paper presented at: Novel Signaling Mechanisms and Bone Cell Biology 2014; Binkowski et al., Methods in molecular biology. 756:263-271). HEK-293 cells were further transfected to stably express the hPTHR1, hPTHR1-H223R, or hPTHR1-T410P. The cells were seeded into 96-well white plates and were assayed 24 to 48 hours post-confluency. Assays were performed at room temperature in CO2-independent culture media (Life Technologies, Corp., Carlsbad, Calif.) containing 0.1% BSA (CIDB). The cells were pre-loaded with luciferin (0.5 mM in CIDB) for 15 minutes, then PTH peptides were added at varying concentrations. cAMP-dependent luminescence was measured at two-minute intervals using a PerkinElmer Envision plate reader. The time at which maximum luminescence (cps) observed with agonist alone, typically at 10-20 minutes after agonist addition, was used to obtain data from wells containing antagonist with or without agonist, to thus generate antagonist ligand dose-response curves. The resulting cps values were then plotted against ligand concentration using GraphPad Prism 7.0 software and a four-parameter logistics curve fitting equation, which yielded parameters of inhibitory potency (pIC50).
as §2
z,999 concentration of antagonist that inhibited the maximum response to PTH(1-34)-induced in the absence of antagonist (at ˜40 minutes) is reported in units of -log M (pIC50), and the corresponding nanomolar value is shown below each pIC50 value. Data are means of the number of experiments indicated (n). The PTH(1-34)-induced maximum luminescence was ˜80,000 cps and the basal was ˜1,000 cps. TMR indicates Lys13 modified at epsilon amino function with TMR, P vs. inhibition by dW12,Y34-bPTH(7-34).

endogenous hPTHR1 = target: T3, endogenous hPTHR1 (Homo sapiens, UniProt Q03431); assay: Antagonism of PTH(1-34)- and PTHrP(1-36)-induced cAMP response (GloSensor) in SGS-72 cells; type: cell-based
T3 construct: Saos-2, in which is endogenously expressed the hPTHR1; endogenous in cells
T3 sequence (Q03431 27-593): T1 sequence (Q03431 27-593)
Procedure: cAMP signaling was assessed in the HEK293-derived or SaOS2-derived cell lines stably expressing the luciferase-based GloSensorTM cAMP reporter ([…] al., Paper presented at: Novel Signaling Mechanisms and Bone Cell Biology 2014; Binkowski et al., Methods in molecular biology. 756:263-271). HEK-293 cells were further transfected to stably express the hPTHR1, hPTHR1-H223R, or hPTHR1-T410P. The cells were seeded into 96-well white plates and were assayed 24 to 48 hours post-confluency. Assays were performed at room temperature in CO2-independent culture media (Life Technologies, Corp., Carlsbad, Calif.) containing 0.1% BSA (CIDB). The cells were pre-loaded with luciferin (0.5 mM in CIDB) for 15 minutes, then PTH peptides were added at varying concentrations. cAMP-dependent luminescence was measured at two-minute intervals using a PerkinElmer Envision plate reader. The time at which maximum luminescence (cps) observed with agonist alone, typically at 10-20 minutes after agonist addition, was used to obtain data from wells containing antagonist with or without agonist, to thus generate antagonist ligand dose-response curves. The resulting cps values were then plotted against ligand concentration using GraphPad Prism 7.0 software and a four-parameter logistics curve fitting equation, which yielded parameters of inhibitory potency (pIC50). Pharmacological properties of the ligands were assessed in cells expressing the PTHR1 and the GloSensorTM cAMP reporter. The assays used GP-2.3 cells, derived from HEK293 cells by stable transfection with the hPTHR1 and GloSensorTM, as well as SGS-72 cells, which are derived from the human osteosarcoma cell line, Saos-2, in which is endogenously expressed the hPTHR1, by stable transfection with GloSensorTM. Binding of representative polypeptides to the PTHR1 was assessed in GP-2.3 cells by radioligand competition methods (FIGS. 1A and 1B, Table 3). […] In Table 5, antagonist assays were performed in SGS-72 cells (SaOS2 cells with stable GloSensorTM cAMP reporter) at room temperature. […] The mean (±sem) concentration of antagonist that inhibited the maximum agonist-induced response observed in the absence of antagonist (at 40 minutes) is reported in units of -log M (pIC50), and the corresponding nanomolar value is shown below each pIC50 value. Data are means of the number of seven experiments. The PTH(1-34)-induced maximum luminescence was 500,000 cps and the basal was 5,000 cps. TMR indicates Lys13 modified at epsilon amino function with TMR. The data are illustrated in FIG. 7A. […] Date are means (±SEM) of the number of separate experiments indicated by n.

PTHR1 [2] = target: T2, PTHR1; assay: Residual agonist activity, cAMP luminescence in GP-2.3 cells; type: cell-based; conditions: ligands applied directly to GP-2.3 cells
Procedure: as §3

PTHR1 [3] = target: T2, PTHR1; assay: Confocal microscopy of TMR-ligand internalization in GP-2.3 cells; type: cell-based; conditions: 15 minutes after ligand addition (100 nM)
Procedure: Confocal fluorescence microscopy images were acquired using Olympus FV-1000 MPE confocal system (Center Valley, Pa. 18034), performed by the Photopathology Core facility of the Wellman Center for Photomedicine at the Massachusetts General Hospital. Images were captured with a 40× (LUMPLFL 0.8NA WD 3.3 mm) water-immersion objective, and with 405 nm and 559 nm excitation lasers, at a resolution of 1024×1024.
The cells were cultured on glass cover-slips in 24-well plates to ˜75% of confluency, then treated with PTH^TMR ligand (100 nM) in Hank's balanced salts buffer with 0.1% BSA (HBB) for 15 minutes at room temperature, then rinsed thrice with HBB, fixed with 4% formalin for 5 minutes, mounted with vector-shield containing DAPI on a glass microscope slide, viewed on the microscope, and digitally imaged.

PTHR1 [4] = target: T2, PTHR1; assay: PTHR1 binding kinetics (dissociation) in GP-2.3 cell membranes
Procedure: as §1, with “Ligand binding to the PTH1 R was assessed in intact GP-2.3 cells or membranes prepared from GP-2.3 cells using a ^125I-PTH peptide analog as tracer radioligand and were incubated at room temperature for 90 minutes. Intact” for “Intact”

## CC[C@H](C)[C@H](N)C(=O)N[C@@H](CCC(N)=O)C(=O)N[C@@H](CC(C)C)C(=O)N[C@@H](CCSC)C(=O)N[C@@H](Cc1c[nH]cn1)C(=O)N[C@@H](CCC(N)=O)C(=O)N[C@@H](CCCNC(=N)N)C(=O)N[C@@H](C)C(=O)N[C@@H](CCCCN)C(=O)N[C@@H](Cc1c[nH]c2ccccc12)C(=O)N[C@H](C(=O)N[C@@H](CCC(N)=O)C(=O)N[C@@H](CC(=O)O)C(=O)N[C@@H](C)C(=O)N[C@@H](CCCNC(=N)N)C(=O)N[C@@H](CCCNC(=N)N)C(=O)N[C@@H](CCCNC(=N)N)C(=O)N[C@@H](C)C(=O)N[C@@H](Cc1ccccc1)C(=O)N[C@@H](CC(C)C)C(=O)N[C@@H](Cc1c[nH]cn1)C(=O)N[C@@H](CCCCN)C(=O)N[C@@H](CC(C)C)C(=O)N[C@H](C(=O)N[C@@H](C)C(=O)N[C@@H](CCC(=O)O)C(=O)N[C@H](C(=O)N[C@@H](Cc1c[nH]cn1)C(=O)N[C@H](C(=O)N[C@@H](C)C(=O)N[C@@H](CCC(=O)O)C(=O)N[C@H](C(N)=O)[C@@H](C)CC)[C@@H](C)O)[C@@H](C)CC)[C@@H](C)CC)[C@@H](C)CC [compound 1950, LA-PTH(5-36)] (H-IQLMHQRAKWIQDARRRAFLHKLIAEIHTAEI-NH2; N-terminus assumed)
PTHR1 (hPTHR1)
  apparent PTHR1 affinity compared with dTrp^12-PTH(7-34)-1894: at least as strong
PTHR1 [1]
  fold more effective inhibition than dTrp^12-PTH(7-34)-1894: five
PTHR1 [1]; pIC50, inhibition of cAMP signal induced by PTH(1-34)
  IC50: 100 nM
Endogenous hPTHR1; PTH(1-34) 0.3 nM
  fold more effective inhibition than dTrp^12-PTH(7-34)-1894: ~30 fold
Endogenous hPTHR1; antagonist pre-treatment 10 minutes, PTHrP(1-36) 0.3 nM, seven experiments, read-out: corresponding nanomolar value vs. PTHrP(1-36) (Table 5)
  IC50: 1 nM
Endogenous hPTHR1; antagonist pre-treatment 10 minutes, PTHrP(1-36) 0.3 nM, seven experiments, read-out: pIC50 vs. PTHrP(1-36) (Table 5) (converted)
  IC50: 0.871 nM
Endogenous hPTHR1; corresponding nanomolar value vs. PTH(1-34) (Table 5), antagonist pre-treatment 10 minutes, PTH(1-34) 0.3 nM, seven experiments
  IC50: 1 nM
Endogenous hPTHR1; pIC50, inhibition of cAMP signal induced by PTH(1-34), PTH(1-34) 0.3 nM
  IC50: 2.51 nM
Endogenous hPTHR1; pIC50 vs. PTH(1-34) (Table 5), antagonist pre-treatment 10 minutes, PTH(1-34) 0.3 nM, seven experiments
  IC50: 0.832 nM
PTHR1 [2]
  residual agonist activity compared with dTrp^12-PTH(7-34)-1894: less residual agonist activity

## CC[C@H](C)[C@H](N)C(=O)N[C@@H](CCC(N)=O)C(=O)N[C@@H](CC(C)C)C(=O)N[C@@H](CCSC)C(=O)N[C@@H](Cc1c[nH]cn1)C(=O)N[C@@H](CCC(N)=O)C(=O)N[C@@H](CCCNC(=N)N)C(=O)N[C@H](Cc1c[nH]c2ccccc12)C(=O)N[C@@H](CCCCNC(=O)c1ccc2c(c1)C(=O)OC21c2ccc(N(C)C)cc2Oc2cc(N(C)C)ccc21)C(=O)N[C@@H](Cc1c[nH]c2ccccc12)C(=O)N[C@H](C(=O)N[C@@H](CCC(N)=O)C(=O)N[C@@H](CC(=O)O)C(=O)N[C@@H](C)C(=O)N[C@@H](CCCNC(=N)N)C(=O)N[C@@H](CCCNC(=N)N)C(=O)N[C@@H](CCCNC(=N)N)C(=O)N[C@@H](C)C(=O)N[C@@H](Cc1c[nH]c2ccccc12)C(=O)N[C@@H](CC(C)C)C(=O)N[C@@H](Cc1c[nH]cn1)C(=O)N[C@@H](CCCCN)C(=O)N[C@@H](CC(C)C)C(=O)N[C@H](C(=O)N[C@@H](C)C(=O)N[C@@H](CCC(=O)O)C(=O)N[C@H](C(=O)N[C@@H](Cc1c[nH]cn1)C(=O)N[C@H](C(=O)N[C@@H](C)C(=O)N[C@@H](CCC(=O)O)C(=O)N[C@H](C(N)=O)[C@@H](C)CC)[C@@H](C)O)[C@@H](C)CC)[C@@H](C)CC)[C@@H](C)CC [compound 1953, TMR-dW12, W23-LA-PTH(5-36)] (H-IQLMHQR[dW]K(5TAMRA)WIQDARRRAWLHKLIAEIHTAEI-NH2; N-terminus assumed)
PTHR1 [3]
  ligand internalization (TMR fluorescence): did not internalize

## ^125I-Nle^8, dTrp^12, Trp^23, Tyr^36-LA-PTH(5-36)-1954
PTHR1 [4]
  dissociation from the PTHR1 compared with ^125I-Tyr^36-PTHrP(5-36)-836 and ^125I-M-PTH(1-15)-779: dissociated more slowly
